Results taken from patent US20250163104A1, “MACROCYCLIC IMMUNOMODULATORS” (priority 2021, published 2025).
pIC50: −log10 of the molar value. *1 amine or outer side, *2 acyl side, *3 side chain or, on linkers, in order; H or OH if unused. Where a SMILES comes first, the peptide text is derived from it. Bridges are numbered along the chain shown (N, C = ends). [ ]: non-standard residue; d: D form. The star is where a group is joined. ξ: configuration not given here. X4 = O=C([C@H](CCNC[C@@H](O)[C@H](O)[C@H](O)[C@@H](O)[C@H](O)CO)N[*:1])[*:2]; Phe(4-COOH) = N[C@@H](Cc1ccc(C(=O)O)cc1)C(=O)O; Bip = N[C@@H](Cc1ccc(-c2ccccc2)cc1)C(=O)O; Phe(3-Me) = Cc1cccc(C[C@H](N)C(=O)O)c1; Val(3-OH) = CC(C)(O)[C@H](N)C(=O)O; 4Pal = N[C@@H](Cc1ccncc1)C(=O)O; Cha = N[C@@H](CC1CCCCC1)C(=O)O; Thr(3ξ) = CC(O)[C@H](N)C(=O)O; Carboxymethyl = O=C(O)C*; NMeA = CN[C@@H](C)C(=O)O; Nle = CCCC[C@H](N)C(=O)O; Orn = NCCC[C@H](N)C(=O)O; Pra = C#CC[C@H](N)C(=O)O; Dab = NCC[C@H](N)C(=O)O; Nva = CCC[C@H](N)C(=O)O; Dap = NC[C@H](N)C(=O)O

molecular target: T1, human PD-1 / PD-L1-Ig binding on Jurkat cell line over-expressing human PD-1 (Jurkat-PD-1) (Homo sapiens, UniProt Q15116); assay: Jurkat-PD-1 Cell Binding High-Content Screening Assay (CBA); format: cell-based; details: Jurkat-PD-1 cells, PE-labeled PD-L1-Ig 20 nM final; read-out: Jurkat HPD1_PDL1 IC50
T1 construct: expressed in transfected cells; host or cells: Jurkat
T1 sequence (Q15116 25-288): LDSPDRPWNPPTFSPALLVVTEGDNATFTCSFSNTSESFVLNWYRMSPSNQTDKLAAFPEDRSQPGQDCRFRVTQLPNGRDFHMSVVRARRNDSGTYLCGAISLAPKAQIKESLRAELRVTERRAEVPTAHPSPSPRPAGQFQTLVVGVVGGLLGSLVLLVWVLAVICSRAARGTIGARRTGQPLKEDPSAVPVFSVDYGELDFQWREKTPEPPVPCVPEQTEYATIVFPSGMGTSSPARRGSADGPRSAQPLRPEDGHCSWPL
Outline: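 Cell-bound PE-labeled PD-L1-Ig (20 nM final, 1 h) measured by high-content imaging after fixation and Hoechst 33342 counterstain. Compound was applied first for 2 h at 37° C. to Jurkat cells over-expressing human PD-1 in DMEM with 10% FCS.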

Row | Structure (SMILES) | pIC50
1 | CC(C)C[C@H]1NC(=O)[C@H](CCCN)NC(=O)[C@H](C(C)C)NC(=O)[C@H](Cc2ccc(-c3ccccc3)cc2)NC(=O)[C@H](C(C)C)NC(=O)[C@H](Cc2c[nH]c3ccccc23)NC(=O)[C@H](CC(=O)O)NC(=O)[C@H](Cc2ccc(OCC(=O)O)cc2)NC(=O)[C@H](C(C)O)NC(=O)CSC[C@@H](C(=O)N(C)[C@@H](C)C(N)=O)NC(=O)[C@H](CO)NC(=O)[C@H](C(C)C)NC(=O)[C@H](CC2CCCCC2)NC(=O)[C@H](CCN)NC1=O (stereo partly drawn) [Compound 2570] ({CH2CO}-[Thr(3ξ)]Y(Carboxymethyl)DWV[Bip]V[Orn][dL][Dab][Cha]VSC[NMeA]-NH2; thioether N-14) | 7.82
2 | CC(C)C[C@H]1NC(=O)[C@H](CCCN)NC(=O)[C@H](CCCNC(N)=O)NC(=O)[C@H](Cc2ccc(-c3ccccc3)cc2)NC(=O)[C@H](C(C)C)NC(=O)[C@H](Cc2c[nH]c3ccccc23)NC(=O)[C@H](CC(=O)O)NC(=O)[C@H](Cc2cccs2)NC(=O)[C@H](CN)NC(=O)CSC[C@@H](C(=O)N[C@@H](C)C(N)=O)NC(=O)[C@H]([C@@H](C)O)NC(=O)[C@H](C(C)C)NC(=O)[C@H](CC2CCCCC2)NC(=O)[C@H](CCN)NC1=O [Compound 2128] | 8.12
3 | CC(C)C[C@@H]1NC(=O)[C@H](CCN)NC(=O)[C@@H](CC(C)C)NC(=O)[C@H](CCN)NC(=O)[C@H](C(C)C)NC(=O)[C@H](Cc2ccc(-c3ccccc3)cc2)NC(=O)[C@H](C(C)C)NC(=O)[C@H](Cc2c[nH]c3ccccc23)NC(=O)[C@H](CC(N)=O)NC(=O)[C@H](Cc2ccc(O)cc2)NC(=O)[C@H](CC(N)=O)NC(=O)CSC[C@@H](C(=O)NCC(N)=O)NC(=O)[C@H](CO)NC(=O)[C@H](C(C)C)NC1=O [Compound 1083] ({CH2CO}-NYNWV[Bip]V[Dab][dL][Dab]LVSCG-NH2; thioether N-14) | 7.77
4 | CC(C)C[C@H]1NC(=O)[C@H](CCCN)NC(=O)[C@H](C(C)C)NC(=O)[C@H](Cc2ccc(-c3ccccc3)cc2)NC(=O)[C@H](C(C)C)NC(=O)[C@H](Cc2c[nH]c3ccccc23)NC(=O)[C@H](CC(=O)O)NC(=O)[C@H](Cc2ccc(OCC(=O)O)cc2)NC(=O)[C@H](C(C)O)NC(=O)CSC[C@@H](C(=O)N[C@@H](C)C(N)=O)NC(=O)[C@H](C(C)O)NC(=O)[C@H](C(C)C)NC(=O)C(CC2CCCCC2)NC(=O)[C@H](CCN)NC1=O (stereo partly shown) [Compound 2511] | 8.29
5 | CC(C)C[C@H]1NC(=O)[C@H](CCCN)NC(=O)[C@H](CCCCN)NC(=O)[C@H](Cc2ccc(-c3ccccc3)cc2)NC(=O)[C@H](C(C)C)NC(=O)[C@H](Cc2c[nH]c3ccccc23)NC(=O)[C@H](CC(=O)O)NC(=O)[C@H](Cc2ccc(O)cc2)NC(=O)[C@H](CC(N)=O)NC(=O)CSC[C@@H](C(=O)N[C@@H](C)C(N)=O)NC(=O)[C@H]([C@@H](C)O)NC(=O)[C@H](C(C)C)NC(=O)[C@H](CC2CCCCC2)NC(=O)[C@H](CCN)NC1=O [Compound 1381] ({CH2CO}-NYDWV[Bip]K[Orn][dL][Dab][Cha]VTCA-NH2; thioether N-14) | 7.88
6 | CCCC[C@@H]1NC(=O)[C@H](CC(N)=O)NC(=O)[C@@H](CC(C)C)NC(=O)[C@H](CCCN)NC(=O)[C@H](C(C)C)NC(=O)[C@H](Cc2ccc(-c3ccccc3)cc2)NC(=O)[C@H](CC(C)C)NC(=O)[C@H](Cc2c[nH]c3ccccc23)NC(=O)[C@H](CC(=O)O)NC(=O)[C@H](Cc2ccc(O)cc2)NC(=O)[C@H](Cc2ccccc2)NC(=O)CSC[C@@H](C(=O)NCC(N)=O)NC(=O)[C@H](CO)NC(=O)[C@H](C(C)C)NC1=O [Compound 1339] ({CH2CO}-FYDWL[Bip]V[Orn][dL]N[Nle]VSCG-NH2; thioether N-14) | 7.28
7 | CCC(C)[C@@H]1NC(=O)[C@H](Cc2ccc(-c3ccccc3)cc2)NC(=O)[C@H](C(C)C)NC(=O)[C@H](Cc2cc(OC)c(F)cc2F)NC(=O)[C@H](CC(=O)O)NC(=O)[C@H](Cc2ccc(OCC(=O)O)cc2)NC(=O)[C@H](CN)NC(=O)CSC[C@@H](C(=O)N[C@@H](C)C(N)=O)NC(=O)[C@H]([C@@H](C)O)NC(=O)[C@H](C(C)C)NC(=O)[C@H](CC2CCCCC2)NC(=O)[C@H](CCN)NC(=O)[C@@H](CC(C)C)NC(=O)[C@H](CCCN)NC1=O (stereo partly shown) [Compound 2246] | 7.88

Second part, the molecule after the results:

Row | pIC50 | Structure (SMILES)
8 | 6.62 | C#CC[C@H](NC(=O)[C@@H]1CSCC(=O)N[C@@H](CCC)C(=O)N[C@@H](Cc2ccc(OCC(=O)O)cc2)C(=O)N[C@@H](CC(=O)O)C(=O)N[C@@H](Cc2cccc(C)c2)C(=O)N[C@@H](Cc2ccc(OCC(=O)O)cc2)C(=O)N[C@@H](Cc2ccc(-c3ccccc3)cc2)C(=O)N[C@@H](Cc2ccc(OCC(=O)O)cc2)C(=O)N[C@@H](CCCC)C(=O)N[C@H](CC(C)C)C(=O)N[C@@H](CCNC[C@@H](O)[C@H](O)[C@H](O)[C@@H](O)[C@H](O)CO)C(=O)N[C@@H](CC2CCCCC2)C(=O)N[C@@H](C(C)C)C(=O)N[C@@H](CCC(=O)O)C(=O)N1)C(=O)O [Compound 2699] ({CH2CO}-[Nva]Y(Carboxymethyl)D[Phe(3-Me)]Y(Carboxymethyl)[Bip]Y(Carboxymethyl)[Nle][dL][X4][Cha]VEC[Pra]-OH; thioether N-14)
9 | 7.13 | CCC(C)[C@@H]1NC(=O)[C@H](Cc2ccc(-c3ccccc3)cc2)NC(=O)[C@H](C(C)C)NC(=O)[C@H](Cc2cccc(C)c2)NC(=O)[C@H](CC(=O)O)NC(=O)[C@H](Cc2ccc(-c3cccc(C(=O)O)c3)cc2)NC(=O)[C@H](Cc2ccccc2)NC(=O)CSC[C@@H](C(=O)N[C@@H](C)C(N)=O)NC(=O)[C@H]([C@@H](C)O)NC(=O)[C@H](C(C)C)NC(=O)[C@H](CC2CCCCC2)NC(=O)[C@H](CCN)NC(=O)[C@@H](CC(C)C)NC(=O)[C@H](CCCN)NC1=O (stereo partly shown) [Compound 2223]
10 | 7.34 | CCC(C)[C@@H]1NC(=O)[C@H](Cc2ccc(-c3ccccc3)cc2)NC(=O)[C@H](C(C)C)NC(=O)[C@H](Cc2ccc(F)c(C(F)(F)F)c2)NC(=O)[C@H](CC(=O)O)NC(=O)[C@H](Cc2ccc(OCC(=O)O)cc2)NC(=O)[C@H](CN)NC(=O)CSC[C@@H](C(=O)N[C@@H](C)C(N)=O)NC(=O)[C@H]([C@@H](C)O)NC(=O)[C@H](C(C)C)NC(=O)[C@H](CC2CCCCC2)NC(=O)[C@H](CCN)NC(=O)[C@@H](CC(C)C)NC(=O)[C@H](CCCN)NC1=O (stereo partly shown) [Compound 2245]
11 | 7.53 | CC(C)[C@@H]1NC(=O)[C@H](Cc2c[nH]c3ccccc23)NC(=O)[C@H](CC(=O)O)NC(=O)[C@H](Cc2ccncc2)NC(=O)[C@H](Cc2ccc(OCC(=O)O)cc2)NC(=O)CSC[C@@H](C(=O)N[C@@H](C)C(N)=O)NC(=O)[C@H]([C@@H](C)O)NC(=O)[C@H](C(C)C)NC(=O)[C@H](CC2CCCCC2)NC(=O)[C@H](CCN)NC(=O)[C@@H](Cc2ccc(O)cc2)NC(=O)[C@H](CCCN)NC(=O)[C@H](CCC(=O)O)NC(=O)[C@H](Cc2ccc(-c3ccccc3)cc2)NC1=O [Compound 1447] ({CH2CO}-Y(Carboxymethyl)[4Pal]DWV[Bip]E[Orn][dY][Dab][Cha]VTCA-NH2; thioether N-14)
12 | 8.29 | Cc1cccc(C[C@@H]2NC(=O)[C@H](CC(=O)O)NC(=O)[C@H](Cc3ccc(OCC(=O)O)cc3)NC(=O)[C@H](CN)NC(=O)CSC[C@@H](C(=O)N[C@@H](C)C(N)=O)NC(=O)[C@H](CN)NC(=O)[C@H](C(C)C)NC(=O)[C@H](CC3CCCCC3)NC(=O)[C@H](CCN)NC(=O)[C@@H](CC(C)C)NC(=O)[C@H](CCCN)NC(=O)[C@H](C(C)C)NC(=O)[C@H](Cc3ccc(-c4ccccc4)cc3)NC(=O)[C@H](C(C)C)NC2=O)c1 [Compound 1753] ({CH2CO}-[Dap]Y(Carboxymethyl)D[Phe(3-Me)]V[Bip]V[Orn][dL][Dab][Cha]V[Dap]CA-NH2; thioether N-14)
13 | 7.56 | COc1cccc(C[C@@H]2NC(=O)[C@H](CC(=O)O)NC(=O)[C@H](Cc3ccc(O)cc3)NC(=O)[C@H](Cc3ccncc3)NC(=O)CSC[C@@H](C(=O)N[C@@H](C)C(N)=O)NC(=O)[C@H]([C@@H](C)O)NC(=O)[C@H](C(C)C)NC(=O)[C@H](CC3CCCCC3)NC(=O)[C@H](CCN)NC(=O)[C@@H](CC(C)C)NC(=O)[C@H](CCCN)NC(=O)[C@H](CCC(=O)O)NC(=O)[C@H](Cc3ccc(-c4ccccc4)cc3)NC(=O)[C@H](C(C)C)NC2=O)c1 [Compound 1543]
14 | 7.97 | CC(C)C[C@H]1NC(=O)[C@H](CCCN)NC(=O)[C@H](CCC(=O)O)NC(=O)[C@H](Cc2ccc(-c3ccccc3)cc2)NC(=O)[C@H](C(C)C)NC(=O)[C@H](Cc2cccc(Cl)c2)NC(=O)[C@H](CC(=O)O)NC(=O)[C@H](Cc2ccc(OCC(=O)O)cc2)NC(=O)[C@H](Cc2cccnc2)NC(=O)CSC[C@@H](C(=O)N[C@@H](C)C(N)=O)NC(=O)[C@H]([C@@H](C)O)NC(=O)[C@H](C(C)C)NC(=O)[C@H](CC2CCCCC2)NC(=O)[C@H](CCN)NC1=O [Compound 1501]
15 | 8.08 | C#CC[C@H](NC(=O)[C@H](CCN)NC(=O)[C@@H]1CSCC(=O)N[C@@H](CCCN)C(=O)N[C@@H](Cc2ccc(C(=O)O)cc2)C(=O)N[C@@H](CC(=O)O)C(=O)N[C@@H](Cc2cccc(C)c2)C(=O)N[C@@H](Cc2ccc(C(=O)O)cc2)C(=O)N[C@@H](Cc2ccc(-c3ccccc3)cc2)C(=O)N[C@@H](Cc2ccc(C(=O)O)cc2)C(=O)N[C@@H](CCCN)C(=O)N[C@H](CC(C)C)C(=O)N[C@@H](CCN)C(=O)N[C@@H](CC2CCCCC2)C(=O)N[C@@H](C(C)(C)O)C(=O)N[C@@H](CO)C(=O)N1)C(N)=O [Compound 1846] ({CH2CO}-[Orn][Phe(4-COOH)]D[Phe(3-Me)][Phe(4-COOH)][Bip][Phe(4-COOH)][Orn][dL][Dab][Cha][Val(3-OH)]SC[Dab][Pra]-NH2; thioether N-14)
16 | 7.55 | CC(C)C[C@H]1NC(=O)[C@H](CCCN)NC(=O)[C@H](CCC(=O)O)NC(=O)[C@H](Cc2ccc(-c3ccccc3)cc2)NC(=O)[C@H](C(C)C)NC(=O)[C@H](Cc2c[nH]c3ccccc23)NC(=O)[C@H](CC(=O)O)NC(=O)[C@H](Cc2ccc(N)cc2)NC(=O)[C@H](Cc2ccncc2)NC(=O)CSC[C@@H](C(=O)N[C@@H](C)C(N)=O)NC(=O)[C@H]([C@@H](C)O)NC(=O)[C@H](C(C)C)NC(=O)[C@H](CC2CCCCC2)NC(=O)[C@H](CCN)NC1=O [Compound 2184]
